Assay results published in US7662825B2, “N-pyrazinyl-phenylsulphonamides and their use in the treatment of chemokine mediated diseases” (AstraZeneca AB, priority 2002, dated 2010).

First: Cc1cnc(NS(=O)(=O)c2cccc(Cl)c2Cl)c(OCc2ccc[n+]([O-])c2)n1 [Example 86]
Second: Cc1cccc(COc2nc(Cl)cnc2NS(=O)(=O)c2cccc(Cl)c2Cl)n1 [Example 93, 2,3-Dichloro-N-[S-chloro-3-(6-methyl-2-pyridinylmethoxy)-2-pyrazinyl]benzenesulphonamide]
The melting point of the first is higher: 223 to 228 °C for the first, 158 to 159 °C for the second.

First: O=S(=O)(Nc1ncc(Cl)nc1OCc1ccccn1)c1cccc(Cl)c1Cl [Example 89, 2,3-dichloro-N-[5-chloro-3-(2-pyridinylmethoxy)-2-pyrazinyl]benzenesulphonamide]
Second: O=S(=O)(Nc1nc(Cl)cnc1OCc1ccccn1)c1cccc(Cl)c1Cl [Example 100, 2,3-Dichloro-N-[6-chloro-3-(2-pyridinylmethoxy)-2-pyrazinyl]benzenesulphonamide]
The melting point of the first is lower: 147 to 148 °C for the first, 201 to 203 °C for the second.

First: CSCCOc1nc(Cl)cnc1NS(=O)(=O)c1cccc(Cl)c1Cl [Example 90, 2,3-Dichloro-N-[5-chloro-3-(2-methylsulphanylethoxy)-2-pyrazinyl]benzenesulphonamide]
Second: CCCCOc1nc(Cl)cnc1NS(=O)(=O)c1cccc(Cl)c1Cl [Example 91, N-(3-Butoxy-5-chloro-2-pyrazinyl)-2,3-dichlorobenzenesulphonamide]
The melting point of the first is higher: 140 to 141 °C for the first, 133 to 134 °C for the second.

Compared with `Cc1c(Cl)cccc1S(=O)(=O)Nc1ncc(Cl)nc1OCc1cccnc1` [Example 95, 3-Chloro-N-[5-chloro-3-(3-pyridinylmethoxy)-2-pyrazinyl]-2-methylbenzenesulphonamide], `O=S(=O)(Nc1ncc(Cl)nc1OCc1cccnc1)c1cccc(Cl)c1F` [Example 96, 3-Chloro-N-[5-chloro-3-(3-pyridinylmethoxy)-2-pyrazinyl]-2-fluorobenzenesulphonamide] is lower in melting point: 192 to 193 °C for the first, 177 to 178 °C for the second.

Compared with `COc1ccc(COc2nc(Cl)cnc2NS(=O)(=O)c2cccc(Cl)c2Cl)cc1` [Example 97, 2,3-Dichloro-N-[5-chloro-3-(4-methoxyphenylmethoxy)-2-pyrazinyl]benzenesulphonamide], `O=S(=O)(Nc1ncc(Cl)nc1OCc1ccc(CO)cc1)c1cccc(Cl)c1Cl` [Example 109, 2,3-Dichloro-N-[5-chloro-3-(4-hydroxymethylphenylmethoxy)-2-pyrazinyl]benzenesulphonamide] is higher in melting point: 163 to 164 °C for the first, 177 to 178 °C for the second.

First: O=S(=O)(Nc1nc(Cl)cnc1Br)c1cccc(Cl)c1Cl [Example 98]
Second: COc1nc(Br)c(Cl)nc1NS(=O)(=O)c1cccc(Cl)c1Cl [Example 125, N-(5-Bromo-6-chloro-3-methoxy-2-pyrazinyl)-2,3-dichlorobenzenesulphonamide]
The melting point of the first is lower: 123 to 124 °C for the first, 177 to 178 °C for the second.

First: O=S(=O)(Nc1nc(Cl)cnc1OCc1cccnc1)c1cccc(Cl)c1Cl [Example 99, 2,3-Dichloro-N-[6-chloro-3-(3-pyridinylmethoxy)-2-pyrazinyl]benzenesulphonamide]
Second: NC(=O)c1cnc(NS(=O)(=O)c2cccc(Cl)c2Cl)c(OCc2cccnc2)n1 [Example 135, 5-{[(2,3-Dichlorophenyl)sulphonyl]amino}-6-(3-pyridinylmethoxy)-2-pyrazinecarboxamide]
The melting point of the first is higher: 203 to 204 °C for the first, 174 to 178 °C for the second.

Compared with `COC(=O)c1cccc(COc2nc(Cl)cnc2NS(=O)(=O)c2cccc(Cl)c2Cl)c1` [Example 104, 3-[6-Chloro-3-(2,3-dichlorobenzenesulphonylamino)-2-pyrazinyloxymethyl]benzoic acid methyl ester], `O=S(=O)(Nc1ncc(Cl)nc1OCc1cccc(CO)c1)c1cccc(Cl)c1Cl` [Example 106, 2,3-Dichloro-N-[5-chloro-3-(3-hydroxymethylphenylmethoxy)-2-pyrazinyl]benzenesulphonamide] is lower in melting point: 175 to 176 °C for the first, 162 to 163 °C for the second.

First: CNCc1cccc(COc2nc(Cl)cnc2NS(=O)(=O)c2cccc(Cl)c2Cl)c1 [Example 107, 2,3-Dichloro-N-[5-chloro-3-(3-methylaminomethylphenylmethoxy)-2-pyrazinyl]benzenesulphonamide]
Second: O=S(=O)(Nc1ncc(Cl)nc1OCc1cccc(CNCCO)c1)c1cccc(Cl)c1Cl [Example 108, 2,3-Dichloro-N-[5-chloro-3-{3-([2-hydroxyethylamino]methyl)phenylmethoxy}-2-pyrazinyl]benzenesulphonamide]
The melting point of the first is lower: 167 to 168 °C for the first, 196 to 198 °C for the second.

First: O=S(=O)(Nc1ncc(Cl)nc1OCc1ccc(CNCCO)cc1)c1cccc(Cl)c1Cl [Example 110, 2,3-Dichloro-N-[5-chloro-3-{4-([2-hydroxyethylamino]methyl)phenylmethoxy}-2-pyrazinyl]benzenesulphonamide]
Second: O=S(=O)(Nc1nccnc1OCc1ccc(CO)cc1)c1cccc(Cl)c1Cl [Example 111, 2,3-Dichloro-N-[3-(4-hydroxymethylphenylmethoxy)-2-pyrazinyl]benzenesulphonamide]
The melting point of the first is higher: 202 to 205 °C for the first, 160 to 161 °C for the second.

First: COC(=O)c1cnc(NS(=O)(=O)c2cccc(Cl)c2Cl)c(OC)n1 [Example 113, 5-(2,3-Dichlorobenzenesuphonylamino)-6-methoxypyrazine-2-carboxylic acid, methyl ester]
Second: COC(=O)c1nc(OC)c(NS(=O)(=O)c2cccc(Cl)c2Cl)nc1Cl [Example 126, 3-Chloro-5-{[(2,3-dichlorophenyl)sulphonyl]amino}-6-methoxypyrazine-2-carboxylic acid, methyl ester]
The melting point of the first is lower: 120 to 121 °C for the first, 200 to 201 °C for the second.

Compared with `COc1nc(C(C)(C)O)cnc1NS(=O)(=O)c1cccc(Cl)c1Cl` [Example 114, 2,3-Dichloro-N-[5-(1-hydroxy-1-methylethyl)-3-methoxy-2-pyrazinyl]benzenesulphonamide], `COc1nc(OCCN)cnc1NS(=O)(=O)c1cccc(Cl)c1Cl` [Example 115, N-[5-(2-Aminoethoxy)-3-methoxy-2-pyrazinyl]-2,3-dichlorobenzenesulphonamide] is higher in melting point: 192 to 193 °C for the first, 200 to 205 °C for the second.

First: COc1nc(SCCN)c(Cl)nc1NS(=O)(=O)c1cccc(Cl)c1Cl [Example 116, N-{5-[(2-Aminoethyl)thio]-6-chloro-3-methoxy-2-pyrazinyl}-2,3-dichlorobenzenesulfonamide]
Second: COc1nc(CO)c(Cl)nc1NS(=O)(=O)c1cccc(Cl)c1Cl [Example 127, 2,3-Dichloro-N-[6-chloro-5-(hydroxymethyl)-3-methoxypyrazin-2-yl]benzenesulphonamide]
The melting point of the first is higher: 185 to 190 °C for the first, 145 to 147 °C for the second.

First: COC(=O)CCSc1cnc(NS(=O)(=O)c2cccc(Cl)c2Cl)c(OC)n1 [Example 117]
Second: COc1nc(CO)c(C)nc1NS(=O)(=O)c1cccc(Cl)c1Cl [Example 120, 2,3-Dichloro-N-[5-(hydroxymethyl)-3-methoxy-6-methyl-2-pyrazinyl)benzenesulphonamide]
The melting point of the first is lower: 146 to 148 °C for the first, 175 to 177 °C for the second.

First: COc1nc(Br)c(C)nc1NS(=O)(=O)c1cccc(Cl)c1Cl [Example 118, 2,3-Dichloro-N-[5-bromo-3-methoxy-6-methyl-2-pyrazinyl)benzenesulphonamide]
Second: COCc1nc(OC)c(NS(=O)(=O)c2cccc(Cl)c2Cl)nc1Cl [Example 129, 2,3-Dichloro-N-[6-chloro-3-methoxy-5-(methoxymethyl)-2-pyrazinyl]benzenesulphonamide]
The melting point of the first is lower: 146 to 148 °C for the first, 193 to 196 °C for the second.

First: COc1nc(Cl)cnc1NS(=O)(=O)c1cccc(Cl)c1F [Example 122, 3-Chloro-N-(5-chloro-3-methoxy-2-pyrazinyl)-2-fluorobenzenesulphonamide]
Second: COc1nc(Cl)cnc1NS(=O)(=O)c1cccc(F)c1Cl [Example 130, 2-Chloro-N-(5-chloro-3-methoxy-2-pyrazinyl)-3-fluorobenzenesulphonamide]
The melting point of the first is lower: 156 to 157 °C for the first, 159 to 159.5 °C for the second.

Compared with `COC(=O)c1nccnc1NS(=O)(=O)c1cccc(Cl)c1Cl` [Example 124, 3-{[(2,3-Dichlorophenyl)sulphonyl]amino}pyrazine-2-carboxylic acid, methyl ester], `COc1nccnc1NS(=O)(=O)c1cccc(F)c1Cl` [Example 131, 2-Chloro-3-fluoro-N-(3-methoxy-2-pyrazinyl)benzenesulphonamide] is lower in melting point: 177 to 178 °C for the first, 144 to 145 °C for the second.

First: COc1ccc(COc2nccnc2NS(=O)(=O)c2cccc(Cl)c2Cl)cn1 [Example 128, 2,3-Dichloro-N-{3-[(6-methoxy-3-pyridinyl)methoxy]-2-pyrazinyl}benzenesulphonamide]
Second: COC(=O)c1cnc(NS(=O)(=O)c2cccc(Cl)c2Cl)c(OCc2cccnc2)n1 [Example 134, 5-(2,3-Dichlorobenzenesulphonylamino)-6-(3-pyridinylmethoxy)pyrazine-2-carboxylic acid, methyl ester]
The melting point of the first is lower: 187 to 188 °C for the first, 209 to 210 °C for the second.

Compared with `COc1cccc(S(=O)(=O)Nc2nccnc2OC)c1Cl` [Example 132, 2-Chloro-3-methoxy-N-(3-methoxy-2-pyrazinyl)benzenesulphonamide], `O=S(=O)(Nc1ncc(Br)nc1OC[C@@H]1CCCN1)c1cccc(Cl)c1Cl` [Example 133, N-[5-Bromo-3-[(2S)-2-pyrrolidinylmethoxy]-2-pyrazinyl]-2,3-dichlorobenzenesulphonamide] is higher in melting point: 151 to 152 °C for the first, 199 to 200 °C for the second.

With `O=S(=O)(Nc1ncc(Cl)nc1OCc1ccncc1)c1cccc(Cl)c1Cl` [Example 87, 2,3-Dichloro-N-[5-chloro-3-(4-pyridinylmethoxy)-2-pyrazinyl]benzenesulphonamide] the melting point was 226 to 229 °C (dec.).
In the case of `Cc1ncccc1COc1nc(Cl)cnc1NS(=O)(=O)c1cccc(Cl)c1Cl` [Example 92, 2,3-Dichloro-N-[5-chloro-3-(2-methyl-3-pyridinylmethoxy)-2-pyrazinyl]benzenesulphonamide], the melting point is reported as 214 to 216 °C (dec.).
For `O=C(O)c1cccc(COc2nc(Cl)cnc2NS(=O)(=O)c2cccc(Cl)c2Cl)c1` [Example 105, 3-[6-Chloro-3-(2,3-dichlorobenzenesulphonylamino)-2-pyrazinyloxymethyl]benzoic acid], the melting point was 218 to 224 °C (dec.).
